SMILES strings stand for the structures. In brackets after ≈: the same amount, converted by molar mass. Where two headings read alike, the source gives them in different places.

Holding throughout (assay): In vitro antibacterial activity, MIC by micro broth dilution
Format in all cases: cell-based

In assay [1] the test system is methicillin-sensitive Staphylococcus aureus or MSSA. The settings on record: read-out: MIC MSSA. From the text:
(§1) The following strains isolated in clinic were used in antibacterial activity screening in vitro: five strains of methicillin-resistant Staphylococcus aureus or MRSA, five strains of methicillin-sensitive Staphylococcus aureus or MSSA, five strains of methicillin-resistant Staphylococcus epidermidis or MRSE, five strains of methicillin-sensitive Staphylococcus epidermidis or MSSE, three strains of penicillin-resistant Streptococcus pneumoniae or PRSP, and three strains of Streptococcus pyogenes.
(§2) The above strains were clinically isolated pathogenic bacteria collected in Sichuan and Beijing in December 2015. They were identified by the collection unit via a VITEK-60 automatic microbiological identification instrument, and then re-identified by conventional methods in the laboratory. Before the experiment, each strain was purified by a single colony on an agar plate, and the cells freshly cultured at 37° C. overnight were appropriately diluted for the experiment. Quality control strain was Staphylococcus aureus ATCC25923 purchased from the Clinical Testing Center of the Ministry of Health of the People's Republic of China.
(§3) Medium: MH (Mueller-Hinton, hydrolyzed casein) broth (OXOID);
(§4) Culture condition: Incubate at 35-37° C. for 16-18 h.
(§5) The MIC value of each test sample for the tested strain was determined by micro broth dilution method recommended by Performance Standards for Antimicrobial Susceptibility Testing (Twenty-Third Informational Supplement; M02-A11, M07-A9 and M11-A8, 2013) of American Clinical and Laboratory Standards Institute (CLSI).
(§6) After diluting each test sample to different concentrations in MH broth, 100 μl of each sample solution at different concentrations was pipetted into a sterilized 96-well polystyrene plate. In the first to twelfth wells, the drug solution was added, and the final drug concentrations in each well were 64, 32, 16, 8, 4, 2, 1, 0.5, 0.25, 0.125, 0.06, and 0.03 mg/L. The well without drug and without bacteria was set as blank control well. The well with bacteria and without drug was set as a bacterial growth control well.
(§7) The test bacterial solution was adjusted with physiological saline to a bacterial suspension equivalent to 0.5 Maisson turbidity standard, and diluted 1:100 with MH broth. The drug solution was added so that the final concentration of the bacterial solution was about 10^4 CFU/ml; then 100 μl of bacterial solution was pipetted into the above wells (the total volume in each well was 200 μl). The plate was sealed and placed in a 35-37° C. incubator for 18-20 h, and then the results were determined. […] When Streptococcus pneumoniae was tested, sterile defibrillated sheep blood was added into the Colombian broth culture medium at a final concentration of 5% and cultivation was conducted in a 5% CO2 and 35-37° C. incubator for 18-20 hours.

Assay [2] deals with penicillin-resistant Streptococcus pneumoniae or PRSP. The note with it: read-out: MIC PRSP.
Source text: as §1, §2, §3, §4, §5, §6, §7

In assay [3] the test system is Streptococcus pyogenes. The settings on record: read-out: MIC Spy.
Source text: as §1, §2, §3, §4, §5, §6, §7

Assay [4] relates to methicillin-resistant Staphylococcus epidermidis or MRSE. The note with it: read-out: MIC MRSE.
Source text: as §1, §2, §3, §4, §5, §6, §7

Assay [5] has as its system methicillin-sensitive Staphylococcus epidermidis or MSSE. The note with it: read-out: MIC MSSE.
Source text: as §1, §2, §3, §4, §5, §6, §7

The test system of assay [6] is methicillin-resistant Staphylococcus aureus or MRSA. The settings on record: read-out: MIC MRSA.
Source text: as §1, §2, §3, §4, §5, §6, §7

Setting [7] is: 3 clinical strains, range over strains.

As a reminder, the MIC is the lowest concentration found to suppress growth. As for `C[C@@H]1CN2c3c(cc4c(N5C(=O)SC[C@H]5C)noc4c3F)CC3(C(=O)NC(=O)NC3=O)[C@H]2[C@H](C)O1` [Compound 4, (2R,4S,4aS)-11-fluoro-2,4-dimethyl-8-((R)-4-methyl-2-oxothiazolin-3-yl)-1,2,4,4a-tetrahydro-2′H,6H-spiro[isoxazole[4,5-g][1,4]oxazine[4,3-a]quinoline-5,5′-pyrimidine]-2′,4′,6′(1′H,3′H)-trione], the MIC lay within 0.25 to 0.5 µg/mL (≈ 0.497 to 0.993 µM) in assay [1]; 0.25 to 1 µg/mL (≈ 0.497 to 1.99 µM) in assay [2]; 0.125 to 0.25 µg/mL (≈ 0.248 to 0.497 µM) in assay [3]; 0.03 to 0.125 µg/mL (≈ 0.0596 to 0.248 µM) in assay [4]; 0.03 to 0.125 µg/mL (≈ 0.0596 to 0.248 µM) in assay [5]; 0.03 to 0.5 µg/mL (≈ 0.0596 to 0.993 µM) in assay [6].
In the case of `C[C@@H]1CN2c3c(cc4c(N5C(=O)SC[C@@H]5C)noc4c3F)CC3(C(=O)NC(=O)NC3=O)[C@H]2[C@H](C)O1` [Compound 5, (2R,4S,4aS)-11-fluoro-2,4-dimethyl-8-((S)-4-methyl-2-oxothiazolin-3-yl)-1,2,4,4a-tetrahydro-2′H,6H-spiro[isoxazole[4,5-g][1,4]oxazine[4,3-a]quinoline-5,5′-pyrimidine]-2′,4′,6′(1′H,3′H)-trione], the minimum inhibitory concentration (MIC) in assay [1] lay within 0.25 to 0.5 µg/mL (≈ 0.497 to 0.993 µM); in assay [2] it was 0.125 to 1 µg/mL (≈ 0.248 to 1.99 µM); in assay [3], 0.125 to 0.25 µg/mL (≈ 0.248 to 0.497 µM); in assay [4], 0.06 to 0.25 µg/mL (≈ 0.119 to 0.497 µM); in assay [5] it was 0.03 to 0.125 µg/mL (≈ 0.0596 to 0.248 µM); in assay [6], 0.03 to 0.25 µg/mL (≈ 0.0596 to 0.497 µM).
Regarding `C[C@@H]1CN2c3c(cc4c(N5C[C@H](CF)SC5=O)noc4c3F)CC3(C(=O)NC(=O)NC3=O)[C@H]2[C@H](C)O1` [Compound 6], the minimum inhibitory concentration (MIC) in assay [1] was 0.06 to 0.125 µg/mL (≈ 0.115 to 0.24 µM); in assay [2] it was 0.06 to 0.25 µg/mL (≈ 0.115 to 0.479 µM); in assay [3], 0.03 to 0.06 µg/mL (≈ 0.0575 to 0.115 µM); in assay [4], 0.03 to 0.06 µg/mL (≈ 0.0575 to 0.115 µM); in assay [5], < 0.03 µg/mL; in assay [6], 0.03 to 1 µg/mL (≈ 0.0575 to 1.92 µM).
Consider `C[C@@H]1CN2c3c(cc4c(N5C[C@H](CN=[N+]=[N-])SC5=O)noc4c3F)CC3(C(=O)NC(=O)NC3=O)[C@H]2[C@H](C)O1` [Compound 10, (2R,4S,4aS)-8-((R)-5-(azidomethyl)-2-oxothiazol-3-yl)-11-fluoro-2,4-dimethyl-1,2,4,4a-tetrahydro-2′H,6H-spiro[isoxazole[4,5-g][1,4]oxazine[4,3-a]quinoline-5,5′-pyrimidine]-2′,4′,6′(1′H,3′H)-trione], for which the minimum inhibitory concentration (MIC) is 0.06 to 0.25 µg/mL (≈ 0.11 to 0.459 µM) in assay [1]; 0.125 µg/mL (≈ 0.23 µM) in assay [2]; 0.125 to 1 µg/mL (≈ 0.23 to 1.84 µM) in assay [3]; 0.03 to 0.125 µg/mL (≈ 0.0551 to 0.23 µM) in assay [4]; 0.03 to 0.25 µg/mL (≈ 0.0551 to 0.459 µM) in assay [5]; 0.25 to 0.5 µg/mL (≈ 0.459 to 0.918 µM) in assay [6].
For the compound `C[C@@H]1CN2c3c(cc4c(N5C(=O)S[C@@H]6CCC[C@@H]65)noc4c3F)CC3(C(=O)NC(=O)NC3=O)[C@H]2[C@H](C)O1` [Compound 21, (2R,4S,4aS)-11-fluoro-2,4-dimethyl-8-((3aS,6aR)-2-oxotetrahydro-2H-cyclopentane[d]thiazol-3(3aH)-yl)-1,2,4,4a-tetrahydro-2′H,6H-spiro[isoxazole[4,5-g][1,4]oxazine [4,3-a]quinoline-5,5′-pyrimidine]-2′,4′,6′(1′H,3′H)-trione], the minimum inhibitory concentration (MIC) was 0.03 to 0.125 µg/mL (≈ 0.0567 to 0.236 µM) in assay [1]; 0.03 to 0.125 µg/mL (≈ 0.0567 to 0.236 µM) in assay [2]; 0.03 to 0.125 µg/mL (≈ 0.0567 to 0.236 µM) in assay [3]; 0.03 to 0.06 µg/mL (≈ 0.0567 to 0.113 µM) in assay [4]; 0.03 to 0.125 µg/mL (≈ 0.0567 to 0.236 µM) in assay [5]; 0.03 to 0.125 µg/mL (≈ 0.0567 to 0.236 µM) in assay [6].
Regarding `C[C@H]1COc2c(N3CCN(C)CC3)c(F)cc3c(=O)c(C(=O)O)cn1c23` [levofloxacin, reference compound], the MIC in assay [2] (setting [7]) was 1 µg/mL (≈ 2.77 µM); in assay [3] (setting [7]), 0.5 to 1 µg/mL (≈ 1.38 to 2.77 µM); in assay [5] (5 clinical strains, range over strains) it was 0.5 to 4 µg/mL (≈ 1.38 to 11.1 µM).

The record behind these values is patent publication US11180509B2, “Thiazolidone spiro pyrimidine trione compound, preparation method therefor and uses thereof” (SHANGHAI INSTITUTE OF MATERIA MEDICA, CHINESE ACADEMY OF …, priority 2017, dated 2021).
